Measurements taken from patent US6737383B1, “Herbicidal oxadiazolidines” (priority 1999, dated 2004).

What was measured:
cocklebur = assay: Test B pre/postemergence cocklebur; assay type: in vivo, Xanthium strumarium
Summary of the method: (§1)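 Test chemicals in a non-phytotoxic solvent mixture with surfactant were sprayed preemergence onto planted seeds and postemergence onto plants 2 to 18 cm tall (1- to 4-leaf stage). After twelve to sixteen days in a greenhouse, injury was visually rated against untreated controls from 0 (no effect) to 10 (complete control).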

sugar beet = assay: Test B pre/postemergence sugar beet; assay type: in vivo, Beta vulgaris
Summary of the method: as §1

smallflower flatsedge = assay: Test B flood test smallflower flatsedge; assay type: in vivo, Cyperus difformis
Summary of the method: (§2)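 Each value is a visual injury score relative to controls, with 10 meaning complete control and 0 no effect. Evaluation took place twelve to sixteen days after the 2-leaf-stage plants were treated and kept in the greenhouse.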

bamyardgrass = assay: Test B flood test barnyardgrass; assay type: in vivo, Echinochloa crus-galli
Summary of the method: as §2

winter wheat [1] = assay: Test E winter wheat; assay type: in vivo, Triticum aestivum; details: Postemergence
Summary of the method: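 Postemergence: spray at 1–4 leaf stage, soil 60:40 sandy loam:potting mix; solvent + surfactant formulation; greenhouse 21–28 d; visual injury vs untreated controls.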

blackgrass = assay: Test E blackgrass; assay type: in vivo, Alopecurus myosuroides; details: Preemergence
green foxtail = assay: Test E green foxtail; assay type: in vivo, Setaria viridis; details: Preemergence
Italian ryegrass = assay: Test E Italian ryegrass; assay type: in vivo, Lolium multiflorum; details: Preemergence
winter wheat [2] = assay: Test E winter wheat; assay type: in vivo, Triticum aestivum; details: Preemergence
wild oat = assay: Test E wild oat; assay type: in vivo, Avena fatua; details: Preemergence; for Wild oat plant response rating (0 to 100 scale): Rate 250 g/ha
winter barley = assay: Test E winter barley; assay type: in vivo, Hordeum vulgare; details: Preemergence
[3] = Postemergence, Rate 62 g/ha, scale 0 to 10, 0 is no effect, 10 is complete control
[4] = Postemergence, Rate 250 g/ha, scale 0 to 10, 0 no effect, 10 complete control
[5] = Preemergence, Rate 62 g/ha, scale 0 to 10, 0 is no effect, 10 is complete control
[6] = Preemergence, Rate 125 g/ha, scale 0 to 10 (0 no effect, 10 complete control)
[7] = Preemergence, Rate 500 g/ha, scale 0 (no effect) to 10 (complete control)
[8] = Rate 125 g/ha, Postemergence, scale 0 to 10, 0 no effect, 10 complete control
[9] = Preemergence, Rate 250 g/ha, scale of 0 to 10 where 0 is no effect and 10 is complete control
[10] = Rate 125 g/ha, Postemergence section (flood test species), scale 0 to 10, 0 no effect, 10 complete control
[11] = flood test, listed under Postemergence, Rate 250 g/ha, scale 0 to 10, 0 no effect, 10 complete control
[12] = Rate 125 g/ha, 0 to 100 scale (0 no effect, 100 complete control)
[13] = Rate 500 g/ha, 0 to 100 scale where 0 is no effect and 100 is complete control
[14] = Postemergence, Rate 31 g/ha, visual rating, scale 0 to 10 (0 no effect, 10 complete control)
[15] = Preemergence, Rate 31 g/ha, visual rating, scale 0 to 10 (0 no effect, 10 complete control)
[16] = Preemergence, Rate 62 g/ha, scale of 0 to 10 where 0 is no effect and 10 is complete control
[17] = Rate 16 g/ha, Postemergence, scale 0 to 10, 0 no effect, 10 complete control
[18] = Rate 16 g/ha, Preemergence, scale 0 to 10, 0 no effect, 10 complete control
[19] = Rate 62 g/ha, Postemergence, scale 0 to 10 (0 no effect, 10 complete control)
[20] = Rate 125 g/ha, Postemergence, scale of 0 to 10 where 0 is no effect and 10 is complete control
[21] = Rate 125 g/ha, Preemergence, scale of 0 to 10 where 0 is no effect and 10 is complete control
[22] = Rate 16 g/ha, head printed Pre-emergence (flood test species), scale 0 to 10, 0 no effect, 10 complete control
[23] = Rate 31 g/ha, Pre-emergence section (flood test species), scale 0 to 10
[24] = Rate 62 g/ha, headed Pre-emergence (flood test species), scale 0 to 10 (0 no effect, 10 complete control)
[25] = Rate 125 g/ha, Pre-emergence, flood test species, scale 0 to 10 where 0 is no effect and 10 is complete control
[26] = Rate 250 g/ha, Pre-emergence, flood-test species, scale 0 to 10, 0 is no effect, 10 is complete control
[27] = Rate 500 g/ha, Pre-emergence, flood test species, scale 0 to 10 (0 no effect, 10 complete control)
[28] = Rate 1000 g/ha, 0 to 100 scale where 0 is no effect and 100 is complete control
[29] = Rate 250 g/ha, 0 to 100 scale where 0 is no effect and 100 is complete control
[30] = Rate 500 g/ha, 0 to 100 scale, 0 is no effect, 100 is complete control
[31] = Rate 500 g/ha, 0 to 100 scale (0 no effect, 100 complete control)
[32] = Rate 1000 g/ha, 0 to 100 scale, 0 no effect, 100 complete control
[33] = Preemergence, Rate 500 g/ha, scale of 0 to 10 where 0 is no effect and 10 is complete control
[34] = Rate 250 g/ha, Postemergence, scale of 0 to 10 where 0 is no effect and 10 is complete control
[35] = Rate 500 g/ha, Postemergence, scale 0 to 10, 0 no effect, 10 complete control

Structure (SMILES): CC(C)N(C(=O)n1oc(=O)n(-c2ccccc2)c1=O)c1ccc(F)cc1 [Compound 38]
- Cocklebur plant response rating (cocklebur; [3]): 0
- Cocklebur plant response rating (cocklebur; [4]): 1
- Plant response rating, Cocklebur (cocklebur; [5]): 0
- Plant response rating, Cocklebur (cocklebur; [6]): 0
- Cocklebur plant response rating (cocklebur; [7]): 0
- Cocklebur plant response rating (cocklebur; [8]): 0
- Cocklebur plant response rating (cocklebur; Rate 500 g/ha, Postemergence, 0 to 10 scale (0 no effect, 10 complete control)): 1
- Sugarbeets plant response rating (sugar beet; [3]): 0
- Sugarbeets plant response rating (sugar beet; [4]): 0
- Plant response rating, Sugarbeets (sugar beet; [5]): 0
- Plant response rating, Sugarbeets (sugar beet; [6]): 0
- Plant response rating, Sugarbeets (sugar beet; [9]): 2
- Sugarbeets plant response rating (sugar beet; [7]): 6
- Sugarbeets plant response rating (sugar beet; [8]): 0
- S. Flatsedge plant response rating (smallflower flatsedge; [3]): 0
- S. Flatsedge plant response rating (smallflower flatsedge; [10]): 0
- S. Flatsedge plant response rating (smallflower flatsedge; [11]): 0
- Barnyardgrass plant response rating (bamyardgrass; [3]): 0
- Barnyardgrass plant response rating (bamyardgrass; [10]): 0
- Barnyardgrass plant response rating (bamyardgrass; Rate 500 g/ha, Postemergence section of Table B, 0 to 10 scale (0 no effect, 10 complete control)): 0
- Barnyardgrass plant response rating (bamyardgrass; [11]): 0
- Plant response rating, Wheat (winter) (winter wheat [1]; Rate 125 g/ha, 0 to 100 scale): 10
- Plant response rating, Wheat (winter) (winter wheat [1]; Rate 250 g/ha, 0 to 100 scale (0 no effect, 100 complete control)): 10
- Plant response rating, Wheat (winter) (winter wheat [1]; Rate 500 g/ha, 0 to 100 scale, 0 no effect, 100 complete control): 10
- Plant response rating, Blackgrass (blackgrass; [12]): 25
- Plant response rating, Blackgrass (blackgrass; Rate 250 g/ha, 0 to 100 scale): 45
- Plant response rating, Blackgrass (blackgrass; [13]): 35
- Plant response rating, Green foxtail (green foxtail; [12]): 80
- Plant response rating, Green foxtail (green foxtail; Rate 250 g/ha, 0 to 100 scale): 90
- Plant response rating, Green foxtail (green foxtail; [13]): 100
- Plant response rating, I. Ryegrass (Italian ryegrass; [12]): 0
- Plant response rating, I. Ryegrass (Italian ryegrass; Rate 250 g/ha, 0 to 100 scale): 20
- Plant response rating, I. Ryegrass (Italian ryegrass; [13]): 80
- Plant response rating, Wheat (winter) (winter wheat [2]; [12]): 10
- Plant response rating, Wheat (winter) (winter wheat [2]; Rate 250 g/ha, 0 to 100 scale): 0
- Plant response rating, Wheat (winter) (winter wheat [2]; [13]): 10
- Plant response rating, Wild oat (wild oat; [12]): 0
- Plant response rating, Wild oat (wild oat; [13]): 20
- Plant response rating, Barley (winter) (winter barley; [12]): 0
- Plant response rating, Barley (winter) (winter barley; Rate 250 g/ha, 0 to 100 scale): 0
- Plant response rating, Barley (winter) (winter barley; [13]): 0

Structure (SMILES): CCCCCn1c(=O)on(C(=O)N(c2ccc(F)cc2)C(C)C)c1=O [Compound 290]
- Cocklebur plant response rating (cocklebur; [14]): 0
- Cocklebur plant response rating (cocklebur; [15]): 0
- Cocklebur plant response rating (cocklebur; [16]): 0
- Cocklebur plant response rating (cocklebur; [17]): 0
- Cocklebur plant response rating (cocklebur; [18]): 0
- Cocklebur plant response rating (cocklebur; [19]): 0
- Cocklebur plant response rating (cocklebur; [20]): 0
- Cocklebur plant response rating (cocklebur; [21]): 0
- Sugarbeets plant response rating (sugar beet; [14]): 0
- Sugarbeets plant response rating (sugar beet; [15]): 0
- Sugarbeets plant response rating (sugar beet; [16]): 2
- Sugarbeets plant response rating (sugar beet; [17]): 0
- Sugarbeets plant response rating (sugar beet; [18]): 0
- Sugarbeets plant response rating (sugar beet; [19]): 0
- Sugarbeets plant response rating (sugar beet; [20]): 0
- Sugarbeets plant response rating (sugar beet; [21]): 5
- S. Flatsedge plant response rating (smallflower flatsedge; [22]): 0
- S. Flatsedge plant response rating (smallflower flatsedge; [23]): 0
- S. Flatsedge plant response rating (smallflower flatsedge; [24]): 0
- S. Flatsedge plant response rating (smallflower flatsedge; [25]): 2
- S. Flatsedge plant response rating (smallflower flatsedge; [26]): 0
- S. Flatsedge plant response rating (smallflower flatsedge; [27]): 0
- Barnyardgrass plant response rating (bamyardgrass; [22]): 0
- Barnyardgrass plant response rating (bamyardgrass; [23]): 6
- Barnyardgrass plant response rating (bamyardgrass; [24]): 3
- Barnyardgrass plant response rating (bamyardgrass; [25]): 4
- Barnyardgrass plant response rating (bamyardgrass; [26]): 4
- Barnyardgrass plant response rating (bamyardgrass; [27]): 5
- Plant response rating, Wheat (winter) (winter wheat [1]; [28]): 70
- Wheat (winter) plant response rating (winter wheat [1]; [29]): 50
- Plant response rating, Wheat (winter) (winter wheat [1]; [30]): 60
- Blackgrass plant response rating (0 to 100 scale) (blackgrass; Rate 250 g/ha): 60
- Plant response rating, Blackgrass (blackgrass; [31]): 70
- Plant response rating, Blackgrass (blackgrass; [32]): 95
- Green foxtail plant response rating (0 to 100 scale) (green foxtail; Rate 250 g/ha): 65
- Plant response rating, Green foxtail (green foxtail; [31]): 70
- Plant response rating, Green foxtail (green foxtail; [32]): 85
- I. Ryegrass plant response rating (0 to 100 scale) (Italian ryegrass; Rate 250 g/ha): 60
- Plant response rating, I. Ryegrass (Italian ryegrass; [31]): 70
- Plant response rating, I. Ryegrass (Italian ryegrass; [32]): 90
- Wheat (winter) plant response rating (0 to 100 scale) (winter wheat [2]; Rate 250 g/ha): 10
- Plant response rating, Wheat (winter) (winter wheat [2]; [31]): 30
- Plant response rating, Wheat (winter) (winter wheat [2]; [32]): 50
- Wild oat plant response rating (0 to 100 scale) (wild oat): 60
- Plant response rating, Wild oat (wild oat; [31]): 70
- Plant response rating, Wild oat (wild oat; [32]): 70
- Barley (winter) plant response rating (0 to 100 scale) (winter barley; Rate 250 g/ha): 55
- Plant response rating, Barley (winter) (winter barley; [31]): 60
- Plant response rating, Barley (winter) (winter barley; [32]): 70

Structure (SMILES): CC(C)N(C(=O)n1oc(=O)n(C2CCCC2)c1=O)c1ccccc1 [Compound 283]
- Cocklebur plant response rating (cocklebur; [16]): 0
- Cocklebur plant response rating (cocklebur; [9]): 0
- Plant response rating, Cocklebur (cocklebur; [33]): 0
- Cocklebur plant response rating (cocklebur; [19]): 2
- Cocklebur plant response rating (cocklebur; [20]): 2
- Cocklebur plant response rating (cocklebur; [21]): 0
- Plant response rating, Cocklebur (cocklebur; [34]): 2
- Cocklebur plant response rating (cocklebur; [35]): 2
- Sugarbeets plant response rating (sugar beet; [16]): 0
- Sugarbeets plant response rating (sugar beet; [9]): 2
- Plant response rating, Sugarbeets (sugar beet; [33]): 5
- Sugarbeets plant response rating (sugar beet; [19]): 0
- Sugarbeets plant response rating (sugar beet; [20]): 2
- Sugarbeets plant response rating (sugar beet; [21]): 0
- Plant response rating, Sugarbeets (sugar beet; [34]): 2
- Sugarbeets plant response rating (sugar beet; [35]): 2
- S. Flatsedge plant response rating (smallflower flatsedge; [24]): 0
- S. Flatsedge plant response rating (smallflower flatsedge; [25]): 0
- S. Flatsedge plant response rating (smallflower flatsedge; [26]): 0
- S. Flatsedge plant response rating (smallflower flatsedge; [27]): 5
- Barnyardgrass plant response rating (bamyardgrass; [24]): 0
- Barnyardgrass plant response rating (bamyardgrass; [25]): 3
- Barnyardgrass plant response rating (bamyardgrass; [26]): 6
- Barnyardgrass plant response rating (bamyardgrass; [27]): 6
- Plant response rating, Wheat (winter) (winter wheat [1]; [28]): 75
- Wheat (winter) plant response rating (winter wheat [1]; [29]): 60
- Plant response rating, Wheat (winter) (winter wheat [1]; [30]): 50
- Blackgrass plant response rating (0 to 100 scale) (blackgrass; Rate 250 g/ha): 50
- Plant response rating, Blackgrass (blackgrass; [31]): 60
- Plant response rating, Blackgrass (blackgrass; [32]): 85
- Green foxtail plant response rating (0 to 100 scale) (green foxtail; Rate 250 g/ha): 100
- Plant response rating, Green foxtail (green foxtail; [31]): 100
- Plant response rating, Green foxtail (green foxtail; [32]): 100
- I. Ryegrass plant response rating (0 to 100 scale) (Italian ryegrass; Rate 250 g/ha): 70
- Plant response rating, I. Ryegrass (Italian ryegrass; [31]): 90
- Plant response rating, I. Ryegrass (Italian ryegrass; [32]): 98
- Wheat (winter) plant response rating (0 to 100 scale) (winter wheat [2]; Rate 250 g/ha): 50
- Plant response rating, Wheat (winter) (winter wheat [2]; [31]): 65
- Plant response rating, Wheat (winter) (winter wheat [2]; [32]): 80
- Wild oat plant response rating (0 to 100 scale) (wild oat): 65
- Plant response rating, Wild oat (wild oat; [31]): 50
- Plant response rating, Wild oat (wild oat; [32]): 70
- Barley (winter) plant response rating (0 to 100 scale) (winter barley; Rate 250 g/ha): 60
- Plant response rating, Barley (winter) (winter barley; [31]): 75
- Plant response rating, Barley (winter) (winter barley; [32]): 80
